What was measured:
Procathepsin L = Procathepsin L (Homo sapiens, UniProt P07711); experiment: Inhibition of human Cathepsin L
Cathepsin S = Cathepsin S (Homo sapiens, UniProt P25774); experiment: Inhibition of Cathepsin S (unknown origin)
Cathepsin K = molecular target: T1, Cathepsin K (Homo sapiens, UniProt P43235); experiment: Inhibition of Cathepsin K (unknown origin)
T1 sequence (P43235 whole entry): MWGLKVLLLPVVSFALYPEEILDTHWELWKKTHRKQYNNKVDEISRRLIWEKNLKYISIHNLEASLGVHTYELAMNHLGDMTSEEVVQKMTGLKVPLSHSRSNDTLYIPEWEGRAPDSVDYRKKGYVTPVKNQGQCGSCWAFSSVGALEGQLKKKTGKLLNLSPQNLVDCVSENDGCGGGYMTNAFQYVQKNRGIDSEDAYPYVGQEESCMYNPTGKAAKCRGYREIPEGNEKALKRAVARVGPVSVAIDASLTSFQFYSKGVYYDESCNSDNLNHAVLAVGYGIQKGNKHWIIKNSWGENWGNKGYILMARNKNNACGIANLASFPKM

Homo sapiens [1] = species: Homo sapiens; experiment: Inhibition of cIAP BIR3 domain (unknown origin) at 1000 uM relative to control
Homo sapiens [2] = species: Homo sapiens; experiment: Inhibition of cIAP BIR3 domain (unknown origin) at 495 uM relative to control

Sequence of Procathepsin L (P07711 whole entry): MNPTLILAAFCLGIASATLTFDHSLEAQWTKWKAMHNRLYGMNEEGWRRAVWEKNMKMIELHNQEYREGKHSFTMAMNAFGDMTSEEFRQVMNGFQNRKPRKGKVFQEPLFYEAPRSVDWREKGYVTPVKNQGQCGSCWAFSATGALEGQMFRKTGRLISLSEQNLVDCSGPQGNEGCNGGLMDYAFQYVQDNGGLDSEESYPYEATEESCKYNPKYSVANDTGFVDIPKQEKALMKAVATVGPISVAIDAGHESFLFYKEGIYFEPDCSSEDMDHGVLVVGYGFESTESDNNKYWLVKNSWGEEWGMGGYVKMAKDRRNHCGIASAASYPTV
Sequence of Cathepsin S (P25774 whole entry): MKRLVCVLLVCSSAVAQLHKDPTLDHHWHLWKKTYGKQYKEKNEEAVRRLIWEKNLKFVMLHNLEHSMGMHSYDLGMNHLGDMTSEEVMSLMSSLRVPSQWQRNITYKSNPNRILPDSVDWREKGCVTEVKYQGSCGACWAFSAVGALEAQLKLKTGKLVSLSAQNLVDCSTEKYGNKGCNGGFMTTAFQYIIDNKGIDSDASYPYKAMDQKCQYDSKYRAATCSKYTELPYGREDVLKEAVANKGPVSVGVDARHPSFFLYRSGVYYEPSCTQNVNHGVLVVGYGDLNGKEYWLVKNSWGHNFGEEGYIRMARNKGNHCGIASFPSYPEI

SMILES | IC50 (Procathepsin L) [nM] | IC50 (Cathepsin S) [nM] | IC50 (Cathepsin K) [nM] | inhibition (Homo sapiens [1]) [%] | inhibition (Homo sapiens [2]) [%]
C[C@@H]1CN(CC(=O)N2CCc3ccc(N)cc32)CCN1 | – | – | – | 8 | –
C[C@@H]1CN(CC(=O)N2CCc3ccccc32)CCN1 | – | – | – | – | 42
COc1ccc(S(=O)(=O)[C@@H]2C[C@@H](C(=O)NC3(C#N)CC3)N(C(=O)C3(c4ccc(Cl)cn4)CNC3)C2)c(Cl)c1 | 36 | 1.4 | 6500 | – | –

Now from value to compound:

IC50 (Procathepsin L) [nM] | IC50 (Cathepsin S) [nM] | IC50 (Cathepsin K) [nM] | inhibition (Homo sapiens [1]) [%] | inhibition (Homo sapiens [2]) [%] | SMILES
5 | 1 | 2000 | – | – | N#CC1(NC(=O)[C@@H]2C[C@@H](S(=O)(=O)c3ccccc3Cl)CN2C(=O)C2(c3ncc(Br)cc3F)CNC2)CC1
– | – | 11000 | – | – | COc1ccc(S(=O)(=O)[C@@H]2C[C@@H](C(=O)NC3(C#N)CC3)N(C(=O)C3(c4ccc(Cl)cn4)CC3)C2)c(Cl)c1
